Data reported in ChEMBL document CHEMBL4219122, “Synthesis and biological evaluation of histone deacetylase and DNA topoisomerase II-Targeted inhibitors” (Bioorg Med Chem, 2018).

Tests used:
KM12 = experiment: Growth inhibition of human KM12 cells after 48 hrs by sulforhodamine B-based colorimetric assay; type: functional; conditions: KM12, 48 h
DU-145 = experiment: Growth inhibition of human DU145 cells after 48 hrs by sulforhodamine B-based colorimetric assay; type: functional, cell-based; conditions: DU-145, 48 h
[1] = Selectivity index, ratio of IC50 for human placenta topoisomerase 2alpha to IC50 for mouse HDAC6 expressed in HEK293T cells co-expressing mouse HDA2; type: cell-based
HCT-15 = experiment: Growth inhibition of human HCT15 cells after 48 hrs by sulforhodamine B-based colorimetric assay; type: functional; conditions: HCT-15, 48 h
OVCAR-3 = experiment: Growth inhibition of human OVCAR3 cells after 48 hrs by sulforhodamine B-based colorimetric assay; type: functional; conditions: OVCAR-3, 48 h
OVCAR-5 = experiment: Growth inhibition of human OVCAR5 cells after 48 hrs by sulforhodamine B-based colorimetric assay; type: functional; conditions: OVCAR-5, 48 h
ACHN = experiment: Growth inhibition of human ACHN cells after 48 hrs by sulforhodamine B-based colorimetric assay; type: functional
SF-539 = experiment: Growth inhibition of human SF539 cells after 48 hrs by sulforhodamine B-based colorimetric assay; type: functional; conditions: SF-539, 48 h
MKN-28 = experiment: Growth inhibition of human MKN28 cells after 48 hrs by sulforhodamine B-based colorimetric assay; type: functional; conditions: MKN-28, 48 h
St-4 = experiment: Growth inhibition of human St-4 cells after 48 hrs by sulforhodamine B-based colorimetric assay; type: functional; conditions: St-4, 48 h
MKN-74 = experiment: Growth inhibition of human MKN74 cells after 48 hrs by sulforhodamine B-based colorimetric assay; type: functional; conditions: MKN-74, 48 h
Histone deacetylase 1 = Histone deacetylase 1 (Homo sapiens, UniProt Q13547); experiment: Inhibition of recombinant human HDAC1 expressed in HEK293T cells using Ac-KGLGK(Ac)-MCA as substrate after 30 mins in presence of DTT by fluorescence assay
Histone deacetylase 1, sequence (Q13547 whole entry): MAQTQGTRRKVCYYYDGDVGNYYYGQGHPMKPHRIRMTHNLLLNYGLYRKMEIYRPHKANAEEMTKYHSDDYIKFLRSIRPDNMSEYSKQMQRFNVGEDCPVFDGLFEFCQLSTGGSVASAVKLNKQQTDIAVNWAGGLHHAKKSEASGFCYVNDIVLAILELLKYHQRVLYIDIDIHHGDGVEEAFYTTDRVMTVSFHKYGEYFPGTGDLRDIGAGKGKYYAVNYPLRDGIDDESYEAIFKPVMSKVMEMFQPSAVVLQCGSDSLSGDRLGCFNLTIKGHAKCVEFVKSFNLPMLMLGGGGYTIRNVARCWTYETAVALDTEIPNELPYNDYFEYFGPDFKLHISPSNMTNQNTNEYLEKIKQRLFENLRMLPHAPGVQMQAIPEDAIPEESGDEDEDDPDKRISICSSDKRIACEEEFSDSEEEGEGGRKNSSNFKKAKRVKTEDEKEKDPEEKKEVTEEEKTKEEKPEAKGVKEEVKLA

OVCAR-4 = experiment: Growth inhibition of human OVCAR4 cells after 48 hrs by sulforhodamine B-based colorimetric assay; type: functional; conditions: OVCAR-4, 48 h
HT-29 = experiment: Growth inhibition of human HT-29 cells after 48 hrs by sulforhodamine B-based colorimetric assay; type: functional; conditions: HT-29, 48 h
MKN-1 = experiment: Growth inhibition of human MKN1 cells after 48 hrs by sulforhodamine B-based colorimetric assay; type: functional; conditions: MKN-1, 48 h
DMS-114 = experiment: Growth inhibition of human DMS114 cells after 48 hrs by sulforhodamine B-based colorimetric assay; type: functional; conditions: DMS-114, 48 h

Compound	GI50 (KM12) [µM]	GI50 (DU-145; read-out: GI50) [µM]	GI50 (DU-145; read-out: pGI50 (converted)) [µM]	Ratio IC50 [1]	GI50 (HCT-15) [µM]	GI50 (OVCAR-3) [µM]	GI50 (OVCAR-5) [µM]	GI50 (ACHN) [µM]	GI50 (SF-539) [µM]	GI50 (MKN-28) [µM]	GI50 (St-4) [µM]	GI50 (MKN-74) [µM]	IC50 (Histone deacetylase 1) [µM]	GI50 (OVCAR-4) [µM]	GI50 (HT-29) [µM]	GI50 (MKN-1) [µM]	GI50 (DMS-114) [µM]
Cc1cn([C@@H]2C[C@H](C3(c4ccc(NC(=O)CCCCCCC(=O)NO)cc4)SCCCS3)[C@@H](CO[Si](C)(C)C(C)(C)C)O2)c(=O)[nH]c1=O	6.76	3.98	3.98	20	15.5	3.02	6.61	9.33	4.57	4.27	8.71	5.75	1.1	3.98	7.08	4.47	3.55
Cc1cn([C@H]2C[C@H](C3(c4ccc(NC(=O)CCCCCCC(=O)NO)cc4)SCCCS3)[C@@H](CO[Si](C)(C)C(C)(C)C)O2)c(=O)[nH]c1=O	4.57	3.98	3.98	–	3.55	2.95	4.9	4.37	3.39	3.72	4.07	4.47	0.73	3.24	3.63	2.95	3.09
